Assay results reported in ChEMBL document CHEMBL3085714 (J Med Chem, 2013).

Columns and labels:
[1] = species on record: Homo sapiens; experiment: Selectivity for p38alpha MAP kinase (unknown origin) over EGFR G719S mutant (unknown origin)
[2] = species on record: Homo sapiens; experiment: Selectivity for p38alpha MAP kinase (unknown origin) over NEK2 (unknown origin)
[3] = species on record: Homo sapiens; experiment: Selectivity for p38alpha MAP kinase (unknown origin) over CLK1 (unknown origin)
[4] = species on record: Homo sapiens; experiment: Selectivity for p38alpha MAP kinase (unknown origin) over DAPK2 (unknown origin)
[5] = species on record: Homo sapiens; experiment: Selectivity for p38alpha MAP kinase (unknown origin) over EGFR T790M mutant (unknown origin)
[6] = species on record: Homo sapiens; experiment: Selectivity for p38alpha MAP kinase (unknown origin) over FER (unknown origin)
[7] = species on record: Homo sapiens; experiment: Selectivity for p38alpha MAP kinase (unknown origin) over CK1-alpha1 (unknown origin)
[8] = species on record: Homo sapiens; experiment: Selectivity for p38alpha MAP kinase (unknown origin) over FGR (unknown origin)
[9] = species on record: Homo sapiens; experiment: Selectivity for p38alpha MAP kinase (unknown origin) over VEGF-R1 (unknown origin)
[10] = species on record: Homo sapiens; experiment: Selectivity for p38alpha MAP kinase (unknown origin) over GRK4 (unknown origin)
[11] = species on record: Homo sapiens; experiment: Selectivity for p38alpha MAP kinase (unknown origin) over EPHB1 (unknown origin)
[12] = species on record: Homo sapiens; experiment: Selectivity for p38alpha MAP kinase (unknown origin) over JAK3 (unknown origin)
[13] = species on record: Homo sapiens; experiment: Selectivity for p38alpha MAP kinase (unknown origin) over EGFR 747 to 752 deletion/P753S mutant (unknown origin)
[14] = species on record: Homo sapiens; experiment: Selectivity for p38alpha MAP kinase (unknown origin) over PKC-iota (unknown origin)
[15] = species on record: Homo sapiens; experiment: Selectivity for p38alpha MAP kinase (unknown origin) over wild-type ABL1 (unknown origin)
[16] = species on record: Homo sapiens; experiment: Selectivity for p38alpha MAP kinase (unknown origin) over PASK (unknown origin)
[17] = species on record: Homo sapiens; experiment: Selectivity for p38alpha MAP kinase (unknown origin) over ERBB4 (unknown origin)
[18] = species on record: Homo sapiens; experiment: Selectivity for p38alpha MAP kinase (unknown origin) over CDK1/CycB1 (unknown origin)
[19] = species on record: Homo sapiens; experiment: Selectivity for p38alpha MAP kinase (unknown origin) over RON (unknown origin)
[20] = species on record: Homo sapiens; experiment: Selectivity for p38alpha MAP kinase (unknown origin) over FLT3 ITD (unknown origin)
[21] = species on record: Homo sapiens; experiment: Selectivity for p38alpha MAP kinase (unknown origin) over EGFR G719C mutant (unknown origin)
[22] = species on record: Homo sapiens; experiment: Selectivity for p38alpha MAP kinase (unknown origin) over PKC-beta1 (unknown origin)
[23] = species on record: Homo sapiens; experiment: Selectivity for p38alpha MAP kinase (unknown origin) over RET V804L mutant (unknown origin)
[24] = species on record: Homo sapiens; experiment: Selectivity for p38alpha MAP kinase (unknown origin) over PDGFR-alpha V561D mutant (unknown origin)
[25] = species on record: Homo sapiens; experiment: Selectivity for p38alpha MAP kinase (unknown origin) over IRAK4 (unknown origin)
[26] = species on record: Homo sapiens; experiment: Selectivity for p38alpha MAP kinase (unknown origin) over DNA-PK (unknown origin)
[27] = species on record: Homo sapiens; experiment: Selectivity for p38alpha MAP kinase (unknown origin) over PKC-beta2 (unknown origin)
[28] = species on record: Homo sapiens; experiment: Selectivity for p38alpha MAP kinase (unknown origin) over PKC-zeta (unknown origin)
[29] = species on record: Homo sapiens; experiment: Selectivity for p38alpha MAP kinase (unknown origin) over SGK1 (unknown origin)
[30] = species on record: Homo sapiens; experiment: Selectivity for p38alpha MAP kinase (unknown origin) over FGF-R2 (unknown origin)
[31] = species on record: Homo sapiens; experiment: Selectivity for p38alpha MAP kinase (unknown origin) over IRAK1 (unknown origin)
[32] = species on record: Homo sapiens; experiment: Selectivity for p38alpha MAP kinase (unknown origin) over SNF1LK2 (unknown origin)
[33] = species on record: Homo sapiens; experiment: Selectivity for p38alpha MAP kinase (unknown origin) over RPS6KA5 (unknown origin)
[34] = species on record: Homo sapiens; experiment: Selectivity for p38alpha MAP kinase (unknown origin) over IKK-alpha (unknown origin)
[35] = species on record: Homo sapiens; experiment: Selectivity for p38alpha MAP kinase (unknown origin) over wild type FGFR1 (unknown origin)
[36] = species on record: Homo sapiens; experiment: Selectivity for p38alpha MAP kinase (unknown origin) over PKC-nu (unknown origin)
[37] = species on record: Homo sapiens; experiment: Selectivity for p38alpha MAP kinase (unknown origin) over PYK2 (unknown origin)
[38] = species on record: Homo sapiens; experiment: Selectivity for p38alpha MAP kinase (unknown origin) over MEK1 (unknown origin)
[39] = species on record: Homo sapiens; experiment: Selectivity for p38alpha MAP kinase (unknown origin) over EPHB4 (unknown origin)
[40] = species on record: Homo sapiens; experiment: Selectivity for p38alpha MAP kinase (unknown origin) over PCTAIRE1 (unknown origin)
[41] = species on record: Homo sapiens; experiment: Selectivity for p38alpha MAP kinase (unknown origin) over EPHA8 (unknown origin)
[42] = species on record: Homo sapiens; experiment: Selectivity for p38alpha MAP kinase (unknown origin) over PIM1 (unknown origin)
[43] = species on record: Homo sapiens; experiment: Selectivity for p38alpha MAP kinase (unknown origin) over CHK1 (unknown origin)
[44] = species on record: Homo sapiens; experiment: Selectivity for p38alpha MAP kinase (unknown origin) over mTOR (unknown origin)
[45] = species on record: Homo sapiens; experiment: Selectivity for p38alpha MAP kinase (unknown origin) over PAK2 (unknown origin)
[46] = species on record: Homo sapiens; experiment: Selectivity for p38alpha MAP kinase (unknown origin) over AXL (unknown origin)
[47] = species on record: Homo sapiens; experiment: Selectivity for p38alpha MAP kinase (unknown origin) over ACK1 (unknown origin)
[48] = species on record: Homo sapiens; experiment: Selectivity for p38alpha MAP kinase (unknown origin) over HCK (unknown origin)
[49] = species on record: Homo sapiens; experiment: Selectivity for p38alpha MAP kinase (unknown origin) over RIPK2 (unknown origin)
[50] = species on record: Homo sapiens; experiment: Selectivity for p38alpha MAP kinase (unknown origin) over MINK1 (unknown origin)
[51] = species on record: Homo sapiens; experiment: Selectivity for p38alpha MAP kinase (unknown origin) over MAP3K7/MAP3K7IP1 (unknown origin)
[52] = species on record: Homo sapiens; experiment: Selectivity for p38alpha MAP kinase (unknown origin) over Aurora-B (unknown origin)
[53] = species on record: Homo sapiens; experiment: Selectivity for p38alpha MAP kinase (unknown origin) over STK25 (unknown origin)
[54] = species on record: Homo sapiens; experiment: Selectivity for p38alpha MAP kinase (unknown origin) over MERTK (unknown origin)
[55] = species on record: Homo sapiens; experiment: Selectivity for p38alpha MAP kinase (unknown origin) over MST2 (unknown origin)
[56] = species on record: Homo sapiens; experiment: Selectivity for p38alpha MAP kinase (unknown origin) over MET D1228H mutant (unknown origin)
[57] = biological target: T1, Mitogen-activated protein kinase 14 (Homo sapiens, UniProt Q16539); experiment: Competitive inhibition of p38alpha MAP kinase (unknown origin) in presence of 300 uM ATP
T1 sequence (Q16539 whole entry): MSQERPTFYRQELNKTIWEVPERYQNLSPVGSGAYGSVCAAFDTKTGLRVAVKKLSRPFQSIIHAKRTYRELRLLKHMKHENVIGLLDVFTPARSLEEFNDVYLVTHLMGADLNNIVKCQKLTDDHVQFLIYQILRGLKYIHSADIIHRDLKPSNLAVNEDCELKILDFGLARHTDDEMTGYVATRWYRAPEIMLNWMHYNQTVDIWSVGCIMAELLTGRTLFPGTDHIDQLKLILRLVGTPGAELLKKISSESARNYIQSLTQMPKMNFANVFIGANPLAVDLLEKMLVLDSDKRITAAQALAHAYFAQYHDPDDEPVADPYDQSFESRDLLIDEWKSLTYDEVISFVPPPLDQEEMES

[58] = species on record: Homo sapiens; experiment: Selectivity for p38alpha MAP kinase (unknown origin) over LCK (unknown origin)
[59] = species on record: Homo sapiens; experiment: Selectivity for p38alpha MAP kinase (unknown origin) over SRMS (unknown origin)
[60] = biological target: T1, Mitogen-activated protein kinase 14; experiment: Competitive inhibition of p38alpha MAP kinase (unknown origin) in presence of 100 uM ATP
[61] = species on record: Homo sapiens; experiment: Selectivity for p38alpha MAP kinase (unknown origin) over MEK2 (unknown origin)
[62] = species on record: Homo sapiens; experiment: Selectivity for p38alpha MAP kinase (unknown origin) over IGF1-R (unknown origin)
[63] = species on record: Homo sapiens; experiment: Selectivity for p38alpha MAP kinase (unknown origin) over PAK1 (unknown origin)

Selectivity ratio [1]: > 1000 | Selectivity ratio [2]: > 1000 | Selectivity ratio [3]: > 1000 | Selectivity ratio [4]: > 1000 | Selectivity ratio [5]: > 1000 | Selectivity ratio [6]: > 1000 | Selectivity ratio [7]: > 1000 | Selectivity ratio [8]: > 1000 | Selectivity ratio [9]: > 1000 | Selectivity ratio [10]: > 1000 | Selectivity ratio [11]: > 1000 | Selectivity ratio [12]: > 1000 | Selectivity ratio [13]: > 1000 | Selectivity ratio [14]: > 1000 | Selectivity ratio [15]: > 1000 | Selectivity ratio [16]: > 1000 | Selectivity ratio [17]: > 1000 | Selectivity ratio [18]: > 1000 | Selectivity ratio [19]: > 1000 | Selectivity ratio [20]: > 1000 | Selectivity ratio [21]: > 1000 | Selectivity ratio [22]: > 1000 | Selectivity ratio [23]: > 1000 | Selectivity ratio [24]: > 1000 | Selectivity ratio [25]: > 1000 | Selectivity ratio [26]: > 1000 | Selectivity ratio [27]: > 1000 | Selectivity ratio [28]: > 1000 | Selectivity ratio [29]: > 1000 | Selectivity ratio [30]: > 1000 | Selectivity ratio [31]: > 1000 | Selectivity ratio [32]: > 1000 | Selectivity ratio [33]: > 1000 | Selectivity ratio [34]: > 1000 | Selectivity ratio [35]: > 1000 | Selectivity ratio [36]: > 1000 | Selectivity ratio [37]: > 1000 | Selectivity ratio [38]: > 1000 | Selectivity ratio [39]: > 1000 | Selectivity ratio [40]: > 1000 | Selectivity ratio [41]: > 1000 | Selectivity ratio [42]: > 1000 | Selectivity ratio [43]: > 1000 | Selectivity ratio [44]: > 1000 | Selectivity ratio [45]: > 1000 | Selectivity ratio [46]: > 1000 | Selectivity ratio [47]: > 1000 | Selectivity ratio [48]: > 1000 | Selectivity ratio [49]: > 1000 | Selectivity ratio [50]: > 1000 | Selectivity ratio [51]: > 1000 | Selectivity ratio [52]: > 1000 | Selectivity ratio [53]: > 1000 | Selectivity ratio [54]: > 1000 | Selectivity ratio [55]: > 1000 | Selectivity ratio [56]: > 1000 | IC50 [57]: 4 nM | Selectivity ratio [58]: > 1000 | Selectivity ratio [59]: > 1000 | IC50 [60]: 1.6 nM | Selectivity ratio [61]: > 1000 | Selectivity ratio [62]: > 1000 | Selectivity ratio [63]: > 1000
Structure (SMILES): Cc1cc(F)c(NC(=O)c2ccsc2)cc1Nc1ccc2c(c1)OCc1ccc(OC[C@H](O)CO)cc1C2=O
